Test results from PubChem BioAssay AID330 (DTP/NCI, 2004).
“And” between values parts separate entries of the source, which are not always exact repeats. Equal values may be shown once. Inconclusive results and toxic doses are left out. The calls were made as follows: active = survival T/C of 150% or more; inactive = T/C below 125% in these data.

System: P388 leukemia ip, CD2F1 mice, survival T/C
Test: NCI In Vivo Anticancer Drug Screen. Data for tumor model P388 Leukemia (intraperitoneal) in CD2F1 (CDF1) mice
Conditions: endpoint: median survival time, higher = longer survival
Method in brief: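 Mice carrying the transplanted tumor received test compound or vehicle. Survival was recorded in each group, and the value is the treated-group measurement divided by that of the vehicle-treated control group.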

[1] = dose: 50.0 mg/kg/injection, schedule: Q01DX009 (ip), vehicle: saline
[2] = dose: 100.0 mg/kg/injection, schedule: Q01DX009 (ip), vehicle: saline
[3] = dose: 50.0 mg/kg/injection, schedule: Q01DX005 (ip), vehicle: Klucel (hydroxypropylcellulose) (HPC)
[4] = dose: 100.0 mg/kg/injection, schedule: Q04DX003 (ip), vehicle: Klucel (hydroxypropylcellulose) (HPC)
[5] = dose: 200.0 mg/kg/injection, schedule: Q04DX003 (ip), vehicle: Klucel (hydroxypropylcellulose) (HPC)
[6] = dose: 400.0 mg/kg/injection, schedule: Q04DX003 (ip), vehicle: Klucel (hydroxypropylcellulose) (HPC)
[7] = dose: 50.0 mg/kg/injection, schedule: Q01DX009 (ip), vehicle: Klucel (hydroxypropylcellulose) (HPC)
[8] = dose: 100.0 mg/kg/injection, schedule: Q01DX009 (ip), vehicle: Klucel (hydroxypropylcellulose) (HPC)
[9] = dose: 200.0 mg/kg/injection, schedule: Q01DX009 (ip), vehicle: Klucel (hydroxypropylcellulose) (HPC)
[10] = dose: 60.0 mg/kg/injection, schedule: Q01DX005 (ip), vehicle: saline with Tween-80
[11] = dose: 120.0 mg/kg/injection, schedule: Q01DX005 (ip), vehicle: saline with Tween-80
[12] = dose: 240.0 mg/kg/injection, schedule: Q01DX005 (ip), vehicle: saline with Tween-80
[13] = dose: 50.0 mg/kg/injection, schedule: Q01DX009 (ip), vehicle: saline with Tween-80
[14] = dose: 100.0 mg/kg/injection, schedule: Q01DX009 (ip), vehicle: saline with Tween-80
[15] = dose: 200.0 mg/kg/injection, schedule: Q01DX009 (ip), vehicle: saline with Tween-80

Measured: T/C

CCOC(=S)SCC(=O)NC
inactive: [1] 98 % of control | [2] 107 % of control | dose: 200.0 mg/kg/injection, schedule: Q01DX009 (ip), vehicle: saline 104 % of control

Cc1cc(OCc2nnc3n2S(=O)(=O)c2ccccc2N3c2ccccc2)ccc1Cl
inactive: dose: 100.0 mg/kg/injection, schedule: Q04DX002 (ip), vehicle: saline with Tween-80 92 % of control | dose: 200.0 mg/kg/injection, schedule: Q04DX002 (ip), vehicle: saline with Tween-80 92 % of control | dose: 400.0 mg/kg/injection, schedule: Q04DX002 (ip), vehicle: saline with Tween-80 87 % of control

Cc1c(O)c2c(c(O)c1Cc1cccc(C#N)c1)C(=O)c1ccccc1C2=O
inactive: dose: 25.0 mg/kg/injection, schedule: Q01DX009 (ip), vehicle: other 89 % of control

C#CCN(C)Cc1cc(OC)c(OC)c(OC)c1
inactive: dose: 12.5 mg/kg/injection, schedule: Q01DX009 (ip), vehicle: saline 102 % of control | dose: 25.0 mg/kg/injection, schedule: Q01DX009 (ip), vehicle: saline 94 % of control | [1] 102 % of control and 86 % of control | [2] 95 % of control and 96 % of control

CC(=O)/C(=C\c1ccccc1Cl)C(=O)CCN(C)C
inactive: dose: 40.0 mg/kg/injection, schedule: Q01DX005 (ip), vehicle: saline 115 % of control | dose: 60.0 mg/kg/injection, schedule: Q01DX005 (ip), vehicle: saline 107 % of control and 112 % of control | dose: 120.0 mg/kg/injection, schedule: Q01DX005 (ip), vehicle: saline 121 % of control | dose: 240.0 mg/kg/injection, schedule: Q01DX005 (ip), vehicle: saline 122 % of control

O=C1c2ccccc2C(=O)N1OCc1csc(-c2ccccc2)n1
inactive: [3] 95 % of control | dose: 100.0 mg/kg/injection, schedule: Q01DX005 (ip), vehicle: Klucel (hydroxypropylcellulose) (HPC) 101 % of control

Fc1ccc(CN2COc3c(ccc4cccnc34)C2)cc1
inactive: [4] 96 % of control | [5] 97 % of control | [6] 94 % of control

N#CCCn1nc(SCc2ccccc2)c(=O)[nH]c1=O
inactive: dose: 50.0 mg/kg/injection, schedule: Q01DX005 (ip), vehicle: saline with Tween-80 95 % of control | dose: 100.0 mg/kg/injection, schedule: Q01DX005 (ip), vehicle: saline with Tween-80 94 % of control | dose: 200.0 mg/kg/injection, schedule: Q01DX005 (ip), vehicle: saline with Tween-80 92 % of control

CCCCCCCCN1CCS(=O)(=O)CC1
inactive: [7] 89 % of control | [8] 94 % of control | [9] 93 % of control

COCCOCOCCCC#C[Si](C)(C)C
inactive: [10] 100 % of control | [11] 106 % of control | [12] 106 % of control

Nc1ccccc1-c1nnc(-c2ccccc2)o1
inactive: [10] 100 % of control | [11] 89 % of control | [12] 86 % of control

COC(=O)C1c2cc3c(c(O)c2C(OC2OC(C)C(OC)C(C)(OC)C2OC)CC1(C)O)C(=O)c1c(O)cc2c(c1C3=O)OC1OC2(C)C(OC(C)=O)C(N(C)C)C1OC(C)=O (stereo not given)
inactive: dose: 3.12 mg/kg/injection, schedule: Q04DX003 (ip), vehicle: other 87 % of control | dose: 6.25 mg/kg/injection, schedule: Q04DX003 (ip), vehicle: other 103 % of control

CCCCCCC(=O)/C=C/c1ccc(OC)c(OC)c1
inactive: [13] 107 % of control | [14] 114 % of control | [15] 115 % of control

CCC[C@@H]1C[C@@H](OC(=S)SC)C[C@H]2CCC(=O)N12
inactive: dose: 50.0 mg/kg/injection, schedule: Q01DX005 (ip), vehicle: Klucel + Tween-80 102 % of control | dose: 100.0 mg/kg/injection, schedule: Q01DX005 (ip), vehicle: Klucel + Tween-80 93 % of control | dose: 200.0 mg/kg/injection, schedule: Q01DX005 (ip), vehicle: Klucel + Tween-80 107 % of control

CN1Cc2c(c3c(n2C)CCCC3=O)C(O)C1 (stereo not given)
inactive: dose: 50.0 mg/kg/injection, schedule: Q04DX002 (ip), vehicle: saline 106 % of control | dose: 100.0 mg/kg/injection, schedule: Q04DX002 (ip), vehicle: saline 100 % of control | dose: 200.0 mg/kg/injection, schedule: Q04DX002 (ip), vehicle: saline 102 % of control

O=C(O)/C=C\C(=O)NCCCCCC(=O)O
inactive: [7] 102 % of control | [8] 103 % of control | [9] 105 % of control

CC(C)N=c1sc(-c2ccccc2)c(C#N)c(=O)n1C(C)C
inactive: dose: 25.0 mg/kg/injection, schedule: Q01DX009 (ip), vehicle: saline with Tween-80 101 % of control | [13] 103 % of control | [14] 103 % of control

O=C(C1=CCCCC1)c1ccc(-c2ccccc2)cc1
inactive: [14] 100 % of control | [15] 100 % of control | dose: 400.0 mg/kg/injection, schedule: Q01DX009 (ip), vehicle: saline with Tween-80 100 % of control

O=C1c2ccccc2C(=O)C1(Br)C(Br)c1ccccc1 (stereo not given)
inactive: [8] 104 % of control | [4] 104 % of control | [5] 95 % of control | [6] 90 % of control

C=C1C(=O)OC2/C=C(CO)/C=C\C3OC3(C)CC(OC(=O)/C(=C/C)CO)C12 (stereo not given)
inactive: dose: 12.5 mg/kg/injection, schedule: Q01DX005 (ip), vehicle: Klucel (hydroxypropylcellulose) (HPC) 106 % of control and 97 % of control | dose: 25.0 mg/kg/injection, schedule: Q01DX005 (ip), vehicle: Klucel (hydroxypropylcellulose) (HPC) 99 % of control and 103 % of control and 116 % of control | [3] 109 % of control and 111 % of control

N=C(N)N=Nc1cc(O)c(NN=C(N)N)cc1O
inactive: dose: 1.56 mg/kg/injection, schedule: Q01DX005 (ip), vehicle: saline with Tween-80 102 % of control | dose: 3.13 mg/kg/injection, schedule: Q01DX005 (ip), vehicle: saline with Tween-80 99 % of control | dose: 6.25 mg/kg/injection, schedule: Q01DX005 (ip), vehicle: saline with Tween-80 102 % of control

O=C(OC1(c2nccc3ccccc23)CCCCC1)c1ccccc1
inactive: dose: 25.0 mg/kg/injection, schedule: Q01DX009 (ip), vehicle: Klucel (hydroxypropylcellulose) (HPC) 97 % of control | [7] 93 % of control | dose: 100.0 mg/kg/injection, schedule: Q01DX001 (ip), vehicle: Klucel (hydroxypropylcellulose) (HPC) 103 % of control | dose: 200.0 mg/kg/injection, schedule: Q01DX001 (ip), vehicle: Klucel (hydroxypropylcellulose) (HPC) 94 % of control | dose: 400.0 mg/kg/injection, schedule: Q01DX001 (ip), vehicle: Klucel (hydroxypropylcellulose) (HPC) 92 % of control

CCn1c2ccccc2c2cc(N=Nc3ccc(O)c4ccccc34)ccc21
inactive: [7] 105 % of control | [8] 101 % of control and 106 % of control | [9] 100 % of control and 102 % of control
